Test results as given in ChEMBL document CHEMBL5584314, “Identification of an m6A Natural Inhibitor, Lobeline, That Reverses Lenvatinib Resistance in Hepatocellular Tumors” (J Nat Prod, 2024).
Activity calls are given as the source filed them. The calls are words filed in the database; no cut-off is given here.

Assays:
[1] = system: Lenvatinib-resistant Hep3B/Len; assay: Antiproliferative activity against human Lenvatinib-resistant Hep3B/Len cells assessed as inhibition of clone formation ability at 5 uM preincubated for 72 hrs and measured after 7 to 10 days in presence of lenvatinib by crystal violet staining based assay; assay type: functional, cell-based; conditions: time 10-13 day
[2] = target: N6-adenosine-methyltransferase catalytic subunit (Homo sapiens) (UniProt Q86U44); assay: Inhibition of METTL3 in human Huh-7 cells assessed as down regulation of m6A RNA level at 2 uM incubated for 72 hrs by Dot blot assay; assay type: cell-based
[3] = Toxicity in BALB/c nude mouse PDX model xenografted with human Lenvatinib-resistant HCC/Len cells assessed as changes in body weight at 1.5 mg/kg, ip cotreated with lenvatinib 5 times per week for 3 weeks; assay type: organism-based; conditions: in vivo, 504 h
[4] = system: Lenvatinib-resistant Huh7/Len; assay: Antiproliferative activity against human Lenvatinib-resistant Huh7/Len cells assessed as inhibition of clone formation ability at 5 uM preincubated for 72 hrs and measured after 7 to 10 days in presence of lenvatinib by crystal violet staining based assay; assay type: functional, cell-based; conditions: time 10-13 day
[5] = system: Lenvatinib-resistant Huh7/Len; assay: Antitumor activity against human Lenvatinib-resistant Huh7/Len cells xenografted in BALB/c nude mouse assessed as tumor growth inhibition at 1.5 mg/kg, ip cotreated with lenvatinib 5 times per week for 3 weeks; assay type: functional, organism-based
[6] = Toxicity in BALB/c nude mouse xenografted with human Lenvatinib-resistant Huh7/Len cells assessed as changes in organ index at 1.5 mg/kg, ip cotreated with lenvatinib 5 times per week for 3 weeks; assay type: organism-based; conditions: in vivo, 504 h
[7] = system: Lenvatinib-resistant Huh7/Len; assay: Anticancer activity against human Lenvatinib-resistant Huh7/Len cells assessed as increase in m6A modification in promoter region by MeRIP-m6A -sequencing analysis; assay type: functional, cell-based
[8] = system: Lenvatinib-resistant Huh7/Len; assay: Anticancer activity against human Lenvatinib-resistant Huh7/Len cells assessed as increase in m6A modification in terminator region by MeRIP-m6A -sequencing analysis; assay type: functional, cell-based
[9] = Toxicity in BALB/c nude mouse PDX model xenografted with human Lenvatinib-resistant HCC/Len cells assessed as changes in body weight at 1.5 mg/kg, ip administered 5 times per week for 3 weeks; assay type: organism-based; conditions: in vivo, 504 h
[10] = target: N6-adenosine-methyltransferase catalytic subunit (Homo sapiens) (UniProt Q86U44); assay: Binding affinity to METTL3 in human Huh-7 cells assessed as thermal stability at 44 to 64 degreeC at 2 uM incubated for 30 mins followed by […] analysis; assay type: cell-based
[11] = target: N6-adenosine-methyltransferase catalytic subunit (Homo sapiens) (UniProt Q86U44); assay: Inhibition of METTL3 in human Lenvatinib-resistant Huh7/Len cells assessed as effect on CTSL mRNA expression level at 2 uM incubated for 72 hrs by RT-PCR analysis; assay type: cell-based
[12] = target: N6-adenosine-methyltransferase catalytic subunit (Homo sapiens) (UniProt Q86U44); assay: Inhibition of METTL3 in human Huh-7 cells assessed as down regulation of m6A RNA level at 2 uM incubated for 72 hrs by colorimetric analysis; assay type: cell-based
[13] = system: Lenvatinib-resistant Hep3B/Len; assay: Antiproliferative activity against human Lenvatinib-resistant Hep3B/Len cells assessed as inhibition of cell viability up to 40 uM after 72 hrs by CCK-8 assay; assay type: functional, cell-based
[14] = target: N6-adenosine-methyltransferase catalytic subunit (Homo sapiens) (UniProt Q86U44); assay: Inhibition of METTL3 in human Lenvatinib-resistant Huh7/Len cells assessed as effect on AKT1 mRNA expression level at 2 uM incubated for 72 hrs by RT-PCR analysis; assay type: cell-based
[15] = system: Lenvatinib-resistant Huh7/Len; assay: Antitumor activity against human Lenvatinib-resistant Huh7/Len cells xenografted in BALB/c nude mouse assessed as reduction in m6A level in tumor tissue at 1.5 mg/kg, ip 5 times per week for 3 weeks by immunohistochemistry analysis; assay type: functional, organism-based
[16] = system: Lenvatinib-resistant Hep3B/Len; assay: Antiproliferative activity against human Lenvatinib-resistant Hep3B/Len cells assessed as inhibition of cell viability at 5 uM after 72 hrs in presence of lenvatinib by CCK-8 assay; assay type: functional, cell-based
[17] = target: N6-adenosine-methyltransferase catalytic subunit (Homo sapiens) (UniProt Q86U44); assay: Inhibition of METTL3 in human Lenvatinib-resistant Huh7/Len cells assessed as effect on ADAMTS9 mRNA expression level at 2 uM incubated for 72 hrs by RT-PCR analysis; assay type: cell-based
[18] = system: Lenvatinib-resistant Huh7/Len; assay: Antiproliferative activity against human Lenvatinib-resistant Huh7/Len cells assessed as inhibition of cell viability at 5 uM uM after 72 hrs in presence of lenvatinib by CCK-8 assay; assay type: functional, cell-based
[19] = system: Lenvatinib-resistant HCC/Len; assay: Antitumor activity against human Lenvatinib-resistant HCC/Len cells xenografted in BALB/c nude mouse model of PDX assessed as reduction in METTL3 protein expression at 1.5 mg/kg, ip 5 times per week for 3 weeks by Western blot assay; assay type: functional, organism-based
[20] = target: N6-adenosine-methyltransferase catalytic subunit (Homo sapiens) (UniProt Q86U44); assay: Inhibition of METTL3 in human Lenvatinib-resistant Huh7/Len cells assessed as effect on TET1 mRNA expression level at 2 uM incubated for 72 hrs by RT-PCR analysis; assay type: cell-based
[21] = Toxicity in BALB/c nude mouse xenografted with human Lenvatinib-resistant Huh7/Len cells assessed as changes in organ index at 1.5 mg/kg, ip administered 5 times per week for 3 weeks; assay type: organism-based; conditions: in vivo, 504 h
[22] = system: Lenvatinib-resistant Huh7/Len; assay: Induction of apoptosis in human Lenvatinib-resistant Huh7/Len cells xenografted in BALB/c nude mouse assessed as apoptotic cells in tumor tissue at 1.5 mg/kg, ip cotreated with lenvatinib 5 times per week for 3 weeks by TUNEL assay; assay type: functional, organism-based
[23] = target: N6-adenosine-methyltransferase catalytic subunit (Homo sapiens) (UniProt Q86U44); assay: Inhibition of METTL3 in human Lenvatinib-resistant Huh7/Len cells assessed as effect on FGFR3 mRNA expression level at 2 uM incubated for 72 hrs by RT-PCR analysis; assay type: cell-based
[24] = system: Lenvatinib-resistant Huh7/Len; assay: Anticancer activity against human Lenvatinib-resistant Huh7/Len cells assessed as reduction in UBE3B mRNA expression at 2 uM by qPCR analysis; assay type: functional, cell-based
[25] = target: N6-adenosine-methyltransferase catalytic subunit (Homo sapiens) (UniProt Q86U44); assay: Inhibition of METTL3 in human Lenvatinib-resistant Huh7/Len cells assessed as effect on NPCL1 mRNA expression level at 2 uM incubated for 72 hrs by RT-PCR analysis; assay type: cell-based
[26] = system: Lenvatinib-resistant HCC/Len; assay: Antitumor activity against human Lenvatinib-resistant HCC/Len cells xenografted in BALB/c nude mouse model of PDX assessed as reduction in m6A expression in tumor tissue at 1.5 mg/kg, ip cotreated with lenvatinib 5 times per week for 3 weeks by immunohistochemistry analysis relative to control; assay type: functional, organism-based
[27] = target: N6-adenosine-methyltransferase catalytic subunit (Homo sapiens) (UniProt Q86U44); assay: Inhibition of METTL3 in human Lenvatinib-resistant Huh7/Len cells assessed as effect on CRB3 mRNA expression level at 2 uM incubated for 72 hrs by RT-PCR analysis; assay type: cell-based
[28] = system: Lenvatinib-resistant Huh7/Len; assay: Anticancer activity against human Lenvatinib-resistant Huh7/Len cells assessed as increase in GGA motif at m6A site by MeRIP-m6A -sequencing analysis; assay type: functional, cell-based
[29] = system: Lenvatinib-resistant Huh7/Len; assay: Antitumor activity against human Lenvatinib-resistant Huh7/Len cells xenografted in BALB/c nude mouse assessed as inhibition of tumor volume at 1.5 mg/kg, ip cotreated with lenvatinib 5 times per week for 3 weeks relative to control; assay type: functional; conditions: 504 h
[30] = system: Lenvatinib-resistant HCC/Len; assay: Antitumor activity against human Lenvatinib-resistant HCC/Len cells xenografted in BALB/c nude mouse model of PDX assessed as reduction in Ki-67 protein expression in tumor tissue at 1.5 mg/kg, ip cotreated with lenvatinib 5 times per week for 3 weeks by immunohistochemistry analysis relative to control; assay type: functional, organism-based
[31] = system: Lenvatinib-resistant Huh7/Len; assay: Antitumor activity against human Lenvatinib-resistant Huh7/Len cells xenografted in BALB/c nude mouse assessed as reduction in Ki-67 protein expression in tumor tissue at 1.5 mg/kg, ip cotreated with lenvatinib 5 times per week for 3 weeks by immunohistochemistry analysis relative to control; assay type: functional; set-up: scale not given: the % may be the effect or the level left

N6-adenosine-methyltransferase catalytic subunit (Homo sapiens), sequence (Q86U44 whole entry): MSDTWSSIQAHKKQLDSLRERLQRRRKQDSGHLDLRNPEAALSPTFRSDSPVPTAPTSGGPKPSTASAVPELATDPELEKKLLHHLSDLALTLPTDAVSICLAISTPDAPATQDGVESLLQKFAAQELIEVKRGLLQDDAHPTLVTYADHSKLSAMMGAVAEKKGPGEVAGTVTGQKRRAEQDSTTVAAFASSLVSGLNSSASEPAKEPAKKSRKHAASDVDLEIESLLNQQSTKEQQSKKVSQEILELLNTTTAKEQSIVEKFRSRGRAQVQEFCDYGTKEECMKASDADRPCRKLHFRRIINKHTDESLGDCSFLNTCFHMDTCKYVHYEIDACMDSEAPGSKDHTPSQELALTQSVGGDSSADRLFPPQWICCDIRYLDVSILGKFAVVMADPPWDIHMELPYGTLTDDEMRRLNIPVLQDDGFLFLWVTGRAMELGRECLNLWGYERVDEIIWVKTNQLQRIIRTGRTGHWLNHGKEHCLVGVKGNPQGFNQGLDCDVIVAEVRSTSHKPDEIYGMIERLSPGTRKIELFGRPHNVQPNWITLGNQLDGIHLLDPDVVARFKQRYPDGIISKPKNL

Compound: CN1[C@@H](CC(=O)c2ccccc2)CCC[C@H]1C[C@H](O)c1ccccc1 [LOBELINE]
- inhibition [1]: inactive
- inhibition [2]: Active
- Activity [3]: Non-Toxic
- inhibition [4]: inactive
- TGI [5]: Active
- Activity [6]: Non-Toxic
- Activity [7]: Active
- Activity [8]: Active
- Activity [9]: Non-Toxic
- Activity [10]: Active
- inhibition [11]: Active
- inhibition [12]: 11%
- inhibition [13]: Active
- inhibition [14]: Active
- Activity [15]: Active
- inhibition [16]: Active
- inhibition [17]: Active
- inhibition [18]: Active
- Activity [19]: inactive
- inhibition [20]: Active
- Activity [21]: Non-Toxic
- Activity [22]: Active
- inhibition [23]: Active
- Activity [24]: Active
- inhibition [25]: Active
- Activity [26]: Active
- inhibition [27]: Active
- Activity [28]: Active
- inhibition in vivo at 1.5 mg/kg [29]: 68%
- Activity [30]: Active
- Activity [31]: 30%
